Test results: ChEMBL document CHEMBL1152211, “Structure-activity study at positions 3 and 4 of human neuropeptide S” (Bioorg Med Chem, 2008)
Non-standard residues stand in square brackets, D forms with d. Residues, ends and D or L forms follow the SMILES beside them. Arg(Me2a) = CN(C)C(=N)NCCC[C@H](N)C(=O)O; Arg(Me2s) = CN=C(NC)NCCC[C@H](N)C(=O)O; 3Pal = N[C@@H](Cc1cccnc1)C(=O)O; Cit = NC(=O)NCCC[C@H](N)C(=O)O; Dab = NCC[C@H](N)C(=O)O; Nva = CCC[C@H](N)C(=O)O

molecular target: T1, Neuropeptide S receptor (Mus musculus) (UniProt Q8BZP8); experiment: Agonist activity at mouse NPSR expressed in HEK293 cells assessed as increase in intracellular calcium mobilization at 10 uM by FLIPR; type: functional, cell-based
T1 sequence (whole entry): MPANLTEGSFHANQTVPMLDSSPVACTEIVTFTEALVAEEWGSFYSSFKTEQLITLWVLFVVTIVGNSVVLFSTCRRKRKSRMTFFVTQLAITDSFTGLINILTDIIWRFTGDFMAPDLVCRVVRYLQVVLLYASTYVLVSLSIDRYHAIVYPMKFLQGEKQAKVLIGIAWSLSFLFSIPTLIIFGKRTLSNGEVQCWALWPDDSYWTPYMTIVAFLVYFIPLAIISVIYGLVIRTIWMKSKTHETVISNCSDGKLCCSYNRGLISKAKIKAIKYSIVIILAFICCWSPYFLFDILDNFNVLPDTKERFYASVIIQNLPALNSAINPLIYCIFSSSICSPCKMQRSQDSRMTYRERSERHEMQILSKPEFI

In order of rising Activity:
1. CSCC[C@H](NC(=O)CNC(=O)[C@@H](NC(=O)CNC(=O)[C@@H](NC(=O)CNC(=O)[C@H](CC(N)=O)NC(=O)[C@H](Cc1cccnc1)NC(=O)[C@H](Cc1ccccc1)NC(=O)[C@@H](N)CO)C(C)C)[C@@H](C)O)C(=O)N[C@@H](CCCCN)C(=O)N[C@@H](CCCCN)C(=O)N[C@H](C(=O)N[C@@H](CO)C(=O)N[C@@H](Cc1ccccc1)C(=O)N[C@@H](CCC(N)=O)C(=O)N[C@@H](CCCNC(=N)N)C(=O)N[C@@H](C)C(=O)N[C@@H](CCCCN)C(=O)N[C@@H](CO)C(=O)O)[C@@H](C)O (H-SF[3Pal]NGVGTGMKKTSFQRAKS-OH)  42%
2. H-SFFNGVGTGMKKTSFQRAKS-OH  46%
3. H-SFDNGVGTGMKKTSFQRAKS-OH  73%
4. H-SFENGVGTGMKKTSFQRAKS-OH  89%
5. H-SFVNGVGTGMKKTSFQRAKS-OH  129%
6. H-SFNNGVGTGMKKTSFQRAKS-OH  161%
7. CSCC[C@H](NC(=O)CNC(=O)[C@@H](NC(=O)CNC(=O)[C@@H](NC(=O)CNC(=O)[C@H](CCN)NC(=O)[C@H](CCCNC(=N)N)NC(=O)[C@H](Cc1ccccc1)NC(=O)[C@@H](N)CO)C(C)C)[C@@H](C)O)C(=O)N[C@@H](CCCCN)C(=O)N[C@@H](CCCCN)C(=O)N[C@H](C(=O)N[C@@H](CO)C(=O)N[C@@H](Cc1ccccc1)C(=O)N[C@@H](CCC(N)=O)C(=O)N[C@@H](CCCNC(=N)N)C(=O)N[C@@H](C)C(=O)N[C@@H](CCCCN)C(=O)N[C@@H](CO)C(=O)O)[C@@H](C)O (H-SFR[Dab]GVGTGMKKTSFQRAKS-OH)  169%

molecular target: T2, Neuropeptide S receptor (Mus musculus, UniProt Q8BZP8); experiment: Agonist activity at mouse NPSR expressed in HEK293 cells assessed as increase in intracellular calcium mobilization by FLIPR; type: functional, cell-based
T2 sequence (Q8BZP8 whole entry): T1 sequence (whole entry)

In order of falling EC50:
1. H-SFTNGVGTGMKKTSFQRAKS-OH  871 nM
2. CSCC[C@H](NC(=O)CNC(=O)[C@@H](NC(=O)CNC(=O)[C@@H](NC(=O)CNC(=O)[C@H](CC(N)=O)NC(=O)[C@H](CCCNC(N)=O)NC(=O)[C@H](Cc1ccccc1)NC(=O)[C@@H](N)CO)C(C)C)[C@@H](C)O)C(=O)N[C@@H](CCCCN)C(=O)N[C@@H](CCCCN)C(=O)N[C@H](C(=O)N[C@@H](CO)C(=O)N[C@@H](Cc1ccccc1)C(=O)N[C@@H](CCC(N)=O)C(=O)N[C@@H](CCCNC(=N)N)C(=O)N[C@@H](C)C(=O)N[C@@H](CCCCN)C(=O)N[C@@H](CO)C(=O)O)[C@@H](C)O (H-SF[Cit]NGVGTGMKKTSFQRAKS-OH)  166 nM
3. CCC[C@H](NC(=O)[C@H](Cc1ccccc1)NC(=O)[C@@H](N)CO)C(=O)N[C@@H](CC(N)=O)C(=O)NCC(=O)N[C@H](C(=O)NCC(=O)N[C@H](C(=O)NCC(=O)N[C@@H](CCSC)C(=O)N[C@@H](CCCCN)C(=O)N[C@@H](CCCCN)C(=O)N[C@H](C(=O)N[C@@H](CO)C(=O)N[C@@H](Cc1ccccc1)C(=O)N[C@@H](CCC(N)=O)C(=O)N[C@@H](CCCNC(=N)N)C(=O)N[C@@H](C)C(=O)N[C@@H](CCCCN)C(=O)N[C@@H](CO)C(=O)O)[C@@H](C)O)[C@@H](C)O)C(C)C (H-SF[Nva]NGVGTGMKKTSFQRAKS-OH)  135 nM
4. H-SFRTGVGTGMKKTSFQRAKS-OH  102 nM
5. C/N=C(/NC)NCCC[C@H](NC(=O)[C@H](Cc1ccccc1)NC(=O)[C@@H](N)CO)C(=O)N[C@@H](CC(N)=O)C(=O)NCC(=O)N[C@H](C(=O)NCC(=O)N[C@H](C(=O)NCC(=O)N[C@@H](CCSC)C(=O)N[C@@H](CCCCN)C(=O)N[C@@H](CCCCN)C(=O)N[C@H](C(=O)N[C@@H](CO)C(=O)N[C@@H](Cc1ccccc1)C(=O)N[C@@H](CCC(N)=O)C(=O)N[C@@H](CCCNC(=N)N)C(=O)N[C@@H](C)C(=O)N[C@@H](CCCCN)C(=O)N[C@@H](CO)C(=O)O)[C@@H](C)O)[C@@H](C)O)C(C)C (H-SF[Arg(Me2s)]NGVGTGMKKTSFQRAKS-OH)  31.6 nM
6. CSCC[C@H](NC(=O)CNC(=O)[C@@H](NC(=O)CNC(=O)[C@@H](NC(=O)CNC(=O)[C@H](CC(N)=O)NC(=O)[C@H](CCCNC(=N)N(C)C)NC(=O)[C@H](Cc1ccccc1)NC(=O)[C@@H](N)CO)C(C)C)[C@@H](C)O)C(=O)N[C@@H](CCCCN)C(=O)N[C@@H](CCCCN)C(=O)N[C@H](C(=O)N[C@@H](CO)C(=O)N[C@@H](Cc1ccccc1)C(=O)N[C@@H](CCC(N)=O)C(=O)N[C@@H](CCCNC(=N)N)C(=O)N[C@@H](C)C(=O)N[C@@H](CCCCN)C(=O)N[C@@H](CO)C(=O)O)[C@@H](C)O (H-SF[Arg(Me2a)]NGVGTGMKKTSFQRAKS-OH)  22.4 nM

molecular target: T1, Neuropeptide S receptor (Mus musculus); experiment: Agonist activity at mouse NPSR expressed in HEK293 cells assessed as increase in intracellular calcium mobilization by FLIPR relative to baseline; type: functional, cell-based

In order of rising Emax:
1. CCC[C@H](NC(=O)[C@H](Cc1ccccc1)NC(=O)[C@@H](N)CO)C(=O)N[C@@H](CC(N)=O)C(=O)NCC(=O)N[C@H](C(=O)NCC(=O)N[C@H](C(=O)NCC(=O)N[C@@H](CCSC)C(=O)N[C@@H](CCCCN)C(=O)N[C@@H](CCCCN)C(=O)N[C@H](C(=O)N[C@@H](CO)C(=O)N[C@@H](Cc1ccccc1)C(=O)N[C@@H](CCC(N)=O)C(=O)N[C@@H](CCCNC(=N)N)C(=O)N[C@@H](C)C(=O)N[C@@H](CCCCN)C(=O)N[C@@H](CO)C(=O)O)[C@@H](C)O)[C@@H](C)O)C(C)C (H-SF[Nva]NGVGTGMKKTSFQRAKS-OH)  207%
2. H-SFRTGVGTGMKKTSFQRAKS-OH  253%
3. H-SFTNGVGTGMKKTSFQRAKS-OH  272%
4. CSCC[C@H](NC(=O)CNC(=O)[C@@H](NC(=O)CNC(=O)[C@@H](NC(=O)CNC(=O)[C@H](CC(N)=O)NC(=O)[C@H](CCCNC(N)=O)NC(=O)[C@H](Cc1ccccc1)NC(=O)[C@@H](N)CO)C(C)C)[C@@H](C)O)C(=O)N[C@@H](CCCCN)C(=O)N[C@@H](CCCCN)C(=O)N[C@H](C(=O)N[C@@H](CO)C(=O)N[C@@H](Cc1ccccc1)C(=O)N[C@@H](CCC(N)=O)C(=O)N[C@@H](CCCNC(=N)N)C(=O)N[C@@H](C)C(=O)N[C@@H](CCCCN)C(=O)N[C@@H](CO)C(=O)O)[C@@H](C)O (H-SF[Cit]NGVGTGMKKTSFQRAKS-OH)  285%
